Test results taken from patent US7176281B2 (priority 2003, dated 2007).
Where a SMILES comes first, the peptide text is derived from it.

What was measured:
[1] = test system: serum sPLA2; assay: Serum sPLA2 levels in Tg197 mice, E. coli membrane assay; assay type: in vivo, mouse; settings: 3–4 weeks post-treatment
Method: Serum of transgenic (Tg197) mice and non-transgenic wild type controls were measured for sPLA2 using an Escherichia coli (E. coli) membrane assay as described previously [Eur J Biochem 2002, 269:719–727]. In brief, [^3H] arachidonate-labeled E. coli membrane suspension (5.8 μCi/μmol, Perkin Elmer, USA) was used as substrate, and 25 mM CaCl2-100 mM Tris-HCl (pH 7.5) as assay buffer. The reaction mixture containing substrate (20 μl), and either purified human synovial sPLA2 standard (1–80 ng/ml, Cayman, USA) or serum (10 μl) in a final volume of 250 μl in assay buffer was incubated at 37° C. for 1 h, and the reaction terminated with 750 μl of chilled PBS containing 1% BSA. 500 μl aliquots of the supernatant were then taken to measure the amount of [^3H] arachidonate released from the E. coli membrane using liquid scintillation counting (Beckman LS 6500 Scintillation Counter). The amount of sPLA2 present in the serum was calculated from the standard curve, and is expressed as ng/ml±SEM.
FIG. 12 depicts time course of serum sPLA2 levels. Serum sPLA2 levels were measured with an E. coli membrane assay in blood samples collected from untreated, P-NT.I- and scrambled P-NT.II-treated Tg197 mice at weekly intervals. Values are the mean±SD (n=4/group). […]

[2] = test system: sPLA2; assay: Inhibition of sPLA2 activity at fixed concentrations; assay type: biochemical
[3] = test system: organotypic hippocampal slice cultures; assay: Kainate-induced injury in organotypic hippocampal slice cultures, GluR1 immunoreactivity
[4] = test system: Tg197 transgenic mice (chronic inflammatory polyarthritis); assay: Tg197 transgenic mouse arthritis model, experiment 2 (4 weeks, time course); assay type: in vivo
Method: In experiment 2, mice were divided into 6 groups (A–F), and were injected i.p with 3 weekly doses (150 μg peptide in 50 μL DMSO per dose) of either the test peptide P-NT.II or the control peptide with the scrambled sequence for 4 consecutive weeks. Tg197 mice in Group B (n=18) were further divided into 4 sub-groups (B1, B2, B3, B4). At the end of 1st week, four Tg197 mice from Group B (sub-group B1) were sacrificed and both hind legs taken for histological processing and scorings. The remaining Tg197 mice from the other sub-groups B were continued with 3 regular doses of injections per week, and four Tg197 mice from each sub-group B2 and B3, were sacrificed at the end of 2nd and 3rd weeks, respectively. At the end of 4th week, all remaining Tg197 mice ([…]) were sacrificed for collection of joint specimens.
Disease monitoring was done by gross observations based on body weight measurements and arthritis scoring, which were done twice weekly after treatment until all the animals were sacrificed at 5th week in experiment 1, or at 4th week in experiment 2. Arthritis score (AS) was recorded on both ankle joints, and average scores as shown below were taken: • 0=no arthritis (normal appearance and flexion); • 0.5=onset of arthritis (mild joint swelling); • 1.0=mild arthritis (joint distortion); • 1.5=as above+finger deformation, less strength on flexion; • […]=moderate arthritis (severe swelling, joint deformation, no strength on flexion); • 2.5=as above+finger deformation in paws; • 3.0=heavy arthritis (ankylosis detected on flexion and severely impaired movement).
For histopathological scoring, both hind legs were dissected and fixed in 10% formaldehyde overnight, decalcified in citrate-buffered formic acid for 3 days at 4° C., and processed for light microscopy (LM). • Histopathological score (HS) was evaluated as follows: • 0=no detectable pathology, • 1=hyperplasia of the synovial membrane and presence of polymorphonuclear infiltrates • 2=pannus and fibrous tissue formation and focal subchondrial bone erosion • 3=articular cartilage destruction and bone erosion • 4=articular cartilage destruction and extensive bone erosion.
Transmission electron microscopy (TEM): Ankle joints dissected from the left hind leg of each mouse were split open longitudinally through the midline between the tibia and the talus, prefixed overnight with 2.5% glutaraldehyde in phosphate buffer, pH 7.4 (PB) and rinsed with PB. After fixing with 1% osmium tetroxide in PB for 2 h, they were dehydrated in a graded series of ethanol and processed into Araldite. Semi-thin sections (1.0μ) were cut and stained with methylene blue to observe the orientation and for histopathological scorings under the light microscope. Ultra-thin sections (80–90 nm) were then cut with an ultramicrotome (Riechert-Jung Ultracut E), mounted on copper grids, counterstained with uranyl acetate and lead citrate, and evaluated under electron microscope (CM120 Biotwin, FEI Company).
Anti-inflammatory activity of the candidate peptide P-NT.II was examined as a new treatment option for modulating rheumatoid arthritis (RA) in a transgenic animal model. To evaluate the potential effectiveness of the peptide as prophylaxis against RA, two separate experiments were performed in 4 week-old transgenic (Tg197) mice and non-transgenic wild-type (wt) mice. These transgenic mice (Tg197) express human tumor necrosis factor (TNFα), a cytokine which has been implicated in the pathogenesis of human RA.

CC[C@H](C)[C@H](NC(=O)[C@H](Cc1ccc(O)cc1)NC(=O)[C@@H](NC(=O)CNC(=O)[C@H](CC(=O)O)NC(=O)[C@H](Cc1c[nH]c2ccccc12)NC(=O)[C@@H](NC(=O)[C@H](Cc1c[nH]cn1)NC(=O)[C@@H](NC(=O)[C@H](CC(=O)O)NC(=O)[C@@H](NC(=O)[C@H](CCCNC(=N)N)NC(=O)CNC(=O)[C@@H](N)CC(C)C)C(C)C)[C@@H](C)CC)C(C)C)C(C)C)C(=O)N[C@@H](CCCNC(=N)N)C(=O)NCC(=O)N[C@@H](CCCNC(=N)N)C(=O)O [P-NT.II] (H-LGRVDIHVWDGVYIRGR-OH; N-terminus and C-terminus assumed)
circulating sPLA2 compared with untreated mice [1]: significantly suppressed | inhibition of sPLA2 activity ([2]; 6 μM): 80% | inhibition of sPLA2 activity ([2]; 10 μM): 90% | GluR1 immunoreactivity of pyramidal neurons after kainate ([3]; 10 μM added before kainate): significantly prevented the decrease in GluR1 immunoreactivity | protection against kainite lesioned hippocampal slices ([3]; 6–10 μM): almost complete protection | % of total at indicated HS scores, HS 2 ([4]; 1 wk treatment): 100% | % of total at indicated HS scores, HS 3 ([4]; 1 wk treatment): 0% | % of total at indicated HS scores, HS 4 ([4]; 1 wk treatment): 0% | Mean HS ± SEM ([4]; 1 wk treatment): 2.12 ± 0.12 | HS compared to untreated or scrambled peptide treated group ([4]; 1–4 weeks): significantly reduced HS | ultrastructural features of the articular chondrocytes (TEM) ([4]; 1–4 weeks post-treatment): did not significantly differ from those seen in the joints of normal wildtype mice | % of total at indicated HS scores, HS 2 ([4]; 2 wk treatment): 100% | % of total at indicated HS scores, HS 3 ([4]; 2 wk treatment): 0% | % of total at indicated HS scores, HS 4 ([4]; 2 wk treatment): 0% | Mean HS ± SEM ([4]; 2 wk treatment): 2.37 ± 0.12 | % of total at indicated HS scores, HS 2 ([4]; 3 wk treatment): 75% | % of total at indicated HS scores, HS 3 ([4]; 3 wk treatment): 25% | % of total at indicated HS scores, HS 4 ([4]; 3 wk treatment): 0% | Mean HS ± SEM ([4]; 3 wk treatment): 2.50 ± 0.20 | HS of synovitis, cartilage degradation and bone erosion ([4]; 4 weeks post-treatment, n=4/group): protective effect | % of total at indicated HS scores, HS 2 ([4]; 4 wk treatment): 75% | % of total at indicated HS scores, HS 3 ([4]; 4 wk treatment): 25% | % of total at indicated HS scores, HS 4 ([4]; 4 wk treatment): 0% | Mean HS ± SEM ([4]; 4 wk treatment): 2.62 ± 0.31 | number of inflammatory cells in the synovium ([4]; as early as 1 week after initiation of treatment): reduced | joints either normal or only mildly affected by arthritis ([4]; first two weeks after peptide treatment): 100% | chondrocyte necrobiosis as well as bone erosions ([4]; histopathologic analysis of joints): significantly reduced | joints either normal or only mildly affected by arthritis ([4]; last two weeks after peptide treatment): 75%
